Our source for the MIC, selectivity ratio and CC50 values is ChEMBL document CHEMBL4433266, “Design, synthesis and antimycobacterial activity of benzoxazinone derivatives and open-ring analogues: Preliminary data and computational analysis” (Bioorg Med Chem Lett, 2019).

≈ marks a conversion by molar mass, not a printed value.

One may read the MIC as the least concentration at which growth counts as inhibited. Usually CC50 stands for the concentration at which the toxic effect on the cells reaches its halfway point.

One data set has as its system Mycobacterium tuberculosis. The experiment in a line: Antimycobacterial activity against Mycobacterium tuberculosis H37Ra ATCC 25197 assessed as inhibition of bacterial cell growth incubated for 7 days by resazurin microtiter assay. To be noted: H37Ra ATCC 25197, 168 h. It is filed as functional. In general terms: Alamar Blue is a resazurin reagent that responds to reducing activity.
For `Cc1ccc(C(=O)/C=C2\Nc3ccccc3OC2=O)cc1`, the MIC is 14 µM (≈ 3.91 µg/mL).

Take `O=C1/C(=C/c2ccccc2Cl)Oc2ccccc2N1Cc1ccccc1`: the minimal inhibitory concentration (MIC) was found to be 177 µM (≈ 64 µg/mL).

In the case of `COC(=O)/C=C1\Nc2cc(-c3ccccc3)ccc2OC1=O`, the minimal inhibitory concentration (MIC) was 145 µM (≈ 42.8 µg/mL).

As to `CN1C(=O)/C(=C/c2ccccc2)Oc2ccccc21`, the minimal inhibitory concentration (MIC) was found to be 127 µM (≈ 31.9 µg/mL).

For `O=C1Nc2ccccc2O/C1=C\c1ccccc1Cl`, the MIC turned out to be 238 µM (≈ 64.7 µg/mL).

As for `O=C1Oc2ccccc2N/C1=C\C(=O)c1ccccc1Cl`, the MIC stood at 13 µM (≈ 3.9 µg/mL).

As for `COC(=O)/C=C1/Oc2ccccc2NC1=O`, the minimum inhibitory concentration (MIC) turned out to be 291 µM (≈ 63.8 µg/mL).

Regarding `COC(=O)/C=C1\Nc2cc3ccccc3cc2OC1=O`, the MIC was over 238 µM.

Consider `O=C1/C(=C/c2ccccc2)Oc2ccccc2N1Cc1ccccc1`, for which the minimum inhibitory concentration (MIC) is 196 µM (≈ 64.2 µg/mL).

Take `O=C1Nc2ccccc2O/C1=C\c1ccccc1`: the MIC was 270 µM (≈ 64.1 µg/mL).

As to `O=C1Oc2ccccc2N/C1=C\C(=O)c1cccc(Cl)c1`, the MIC stood at 13 µM (≈ 3.9 µg/mL).

For `COC(=O)/C=C1\Nc2ccc(Cl)cc2OC1=O`, the minimal inhibitory concentration (MIC) stood at 7.9 µM (≈ 2 µg/mL).

Regarding `O=C1Oc2ccccc2N/C1=C\C(=O)c1ccncc1`, the MIC is 15 µM (≈ 3.99 µg/mL).

`COC(=O)/C=C1\Nc2ccccc2OC1=O`: the minimum inhibitory concentration (MIC) turned out to be 18 µM (≈ 3.95 µg/mL).

In the case of `O=C1Oc2ccccc2N/C1=C\C(=O)c1ccc(Cl)cc1`, the MIC was 13 µM (≈ 3.9 µg/mL).

As to `Cc1cccc(C(=O)/C=C2\Nc3ccccc3OC2=O)c1`, the minimal inhibitory concentration (MIC) was determined as 14 µM (≈ 3.91 µg/mL).

As to `COC(=O)/C=C1\Nc2ccccc2OC1O` (stereo unspecified), the MIC came out at 289 µM (≈ 63.9 µg/mL).

With `COC(=O)/C=C1\Nc2ncccc2OC1=O`, the MIC is over 217 µM.

As to `O=C1Oc2ccccc2N/C1=C\C(=O)c1c[nH]c2ccccc12`, the MIC was 6.5 µM (≈ 1.98 µg/mL).

Turning to `CN1C(=O)/C(=C/c2ccccc2Cl)Oc2ccccc21`, the MIC came out at 224 µM (≈ 64 µg/mL).

For `COC(=O)/C=C1\Nc2cc(Cl)ccc2OC1=O`, the MIC was found to be 63 µM (≈ 16 µg/mL).

With `COC(=O)CC1Nc2ccccc2OC1=O` (stereo unspecified), the MIC was 36 µM (≈ 7.96 µg/mL).

As to `O=C1Oc2ccccc2N/C1=C\C(=O)c1ccccc1`, the MIC amounted to 15 µM (≈ 3.98 µg/mL).

As to `O=C(NNC(=O)c1ccncc1)C(=O)Nc1ccc(Cl)cc1O`, the MIC amounted to 0.75 µM (≈ 0.251 µg/mL).

As to `Cc1ccccc1C(=O)/C=C1\Nc2ccccc2OC1=O`, the MIC is 14 µM (≈ 3.91 µg/mL).

On to `O=C1Oc2ccccc2N/C1=C\C(=O)N1CCOCC1`, for which the MIC turned out to be 7.3 µM (≈ 2 µg/mL).

`O=C(NNC(=O)c1ccncc1)C(=O)Nc1cc(Cl)ccc1O`: the MIC was 0.37 µM (≈ 0.124 µg/mL).

For the compound `O=C(NNC(=O)c1ccncc1)C(=O)Nc1ccccc1O`, the minimal inhibitory concentration (MIC) is 0.42 µM (≈ 0.126 µg/mL).

Take `O=C1Oc2ccccc2N/C1=C\C(=O)c1cccs1`: the minimal inhibitory concentration (MIC) is 7.3 µM (≈ 1.98 µg/mL).

On to `O=C1Oc2ccccc2N/C1=C\C(=O)c1ccc(-c2ccccc2)cc1`, for which the MIC came out at 12 µM (≈ 4.1 µg/mL).

In the case of `NNC(=O)c1ccncc1` [ISONIAZID], the MIC is 0.91 µM (≈ 0.125 µg/mL).

For a further data set, the system named is Mycobacterium tuberculosis. As to the kind of experiment: Antimycobacterial activity against Mycobacterium tuberculosis H37Rv ATCC 27294 assessed as inhibition of bacterial cell growth incubated for 7 days by resazurin microtiter assay. The class given is functional. The settings on record: H37Rv ATCC 27294, 168 h.
`COC(=O)/C=C1\Nc2ccc(Cl)cc2OC1=O`: the MIC was 3.9 µM (≈ 0.989 µg/mL).

Take `COC(=O)/C=C1\Nc2ccccc2OC1=O`: the minimum inhibitory concentration (MIC) turned out to be 4.5 µM (≈ 0.986 µg/mL).

`O=C1Oc2ccccc2N/C1=C\C(=O)c1c[nH]c2ccccc12`: the minimum inhibitory concentration (MIC) was found to be 3.3 µM (≈ 1 µg/mL).

As to `COC(=O)/C=C1\Nc2cc(Cl)ccc2OC1=O`, the MIC was found to be 31 µM (≈ 7.86 µg/mL).

Turning to `O=C(NNC(=O)c1ccncc1)C(=O)Nc1ccc(Cl)cc1O`, the minimum inhibitory concentration (MIC) turned out to be 3.1 µM (≈ 1.04 µg/mL).

With `O=C1Oc2ccccc2N/C1=C\C(=O)N1CCOCC1`, the MIC was 7.3 µM (≈ 2 µg/mL).

With `O=C(NNC(=O)c1ccncc1)C(=O)Nc1cc(Cl)ccc1O`, the MIC came to 3.1 µM (≈ 1.04 µg/mL).

Take `O=C(NNC(=O)c1ccncc1)C(=O)Nc1ccccc1O`: the MIC turned out to be 3.3 µM (≈ 0.991 µg/mL).

Consider `O=C1Oc2ccccc2N/C1=C\C(=O)c1cccs1`, for which the MIC was 14.7 µM (≈ 3.99 µg/mL).

For the compound `NNC(=O)c1ccncc1` [ISONIAZID], the minimal inhibitory concentration (MIC) was found to be 1.8 µM (≈ 0.247 µg/mL).

Tested on in another data set: not listed separately
The experiment in a line: Selectivity index, ratio of CC50 for African green monkey Vero cells to MIC for antimycobacterial activity against Mycobacterium tuberculosis H37Ra ATCC 25197. The settings on record: read-out: Selectivity Index. It is filed as toxicity.
On to `Cc1ccc(C(=O)/C=C2\Nc3ccccc3OC2=O)cc1`, for which the selectivity ratio is 115.

Take `O=C1Oc2ccccc2N/C1=C\C(=O)c1ccccc1Cl`: the selectivity ratio is 118.

In the case of `O=C1Oc2ccccc2N/C1=C\C(=O)c1cccc(Cl)c1`, the selectivity ratio turned out to be 120.

Turning to `COC(=O)/C=C1\Nc2ccc(Cl)cc2OC1=O`, the selectivity ratio came to 202.

As to `O=C1Oc2ccccc2N/C1=C\C(=O)c1ccncc1`, the selectivity ratio was over 125.

As for `COC(=O)/C=C1\Nc2ccccc2OC1=O`, the selectivity ratio was over 125.

With `O=C1Oc2ccccc2N/C1=C\C(=O)c1ccc(Cl)cc1`, the selectivity ratio worked out at 94.

Regarding `Cc1cccc(C(=O)/C=C2\Nc3ccccc3OC2=O)c1`, the selectivity ratio is over 125.

For `O=C1Oc2ccccc2N/C1=C\C(=O)c1c[nH]c2ccccc12`, the selectivity ratio is over 250.

With `COC(=O)/C=C1\Nc2cc(Cl)ccc2OC1=O`, the selectivity ratio worked out at 26.

With `COC(=O)CC1Nc2ccccc2OC1=O` (stereo unspecified), the selectivity ratio worked out at 43.

Regarding `O=C1Oc2ccccc2N/C1=C\C(=O)c1ccccc1`, the selectivity ratio was over 62.

Consider `O=C(NNC(=O)c1ccncc1)C(=O)Nc1ccc(Cl)cc1O`, for which the selectivity ratio is 1560.

As for `Cc1ccccc1C(=O)/C=C1\Nc2ccccc2OC1=O`, the selectivity ratio is over 125.

As to `O=C1Oc2ccccc2N/C1=C\C(=O)N1CCOCC1`, the selectivity ratio amounted to 155.

Regarding `O=C(NNC(=O)c1ccncc1)C(=O)Nc1cc(Cl)ccc1O`, the selectivity ratio was 3320.

With `O=C(NNC(=O)c1ccncc1)C(=O)Nc1ccccc1O`, the selectivity ratio came out at 3380.

As for `O=C1Oc2ccccc2N/C1=C\C(=O)c1cccs1`, the selectivity ratio was over 250.

For `O=C1Oc2ccccc2N/C1=C\C(=O)c1ccc(-c2ccccc2)cc1`, the selectivity ratio was over 30.

In the case of `NNC(=O)c1ccncc1` [ISONIAZID], the selectivity ratio is over 8000.

Tested on in another data set: not listed separately
The experiment in a line: Cytotoxicity in African green monkey Vero cells assessed as reduction in cell viability incubated for 72 hrs by MTT assay. The class given is cell-based. The settings on record: chlorocebus sabaeus. In general terms: Formazan colour is commonly taken as a measure of viable cells.
As to `Cc1ccc(C(=O)/C=C2\Nc3ccccc3OC2=O)cc1`, the CC50 at 72 h was 1.65 mM.

As to `O=C1Oc2ccccc2N/C1=C\C(=O)c1ccccc1Cl`, the CC50 at 72 h stood at 1.57 mM.

Regarding `O=C1Oc2ccccc2N/C1=C\C(=O)c1cccc(Cl)c1`, the cytotoxic concentration (CC50) at 72 h worked out at 1.61 mM.

In the case of `COC(=O)/C=C1\Nc2ccc(Cl)cc2OC1=O`, the half-maximal cytotoxic concentration (CC50) at 72 h was found to be 1.6 mM.

With `O=C1Oc2ccccc2N/C1=C\C(=O)c1ccncc1`, the CC50 at 72 h was over 1.88 mM.

For `COC(=O)/C=C1\Nc2ccccc2OC1=O`, the CC50 at 72 h was over 2.28 mM.

As for `O=C1Oc2ccccc2N/C1=C\C(=O)c1ccc(Cl)cc1`, the CC50 at 72 h worked out at 1.25 mM.

On to `Cc1cccc(C(=O)/C=C2\Nc3ccccc3OC2=O)c1`, for which the half-maximal cytotoxic concentration (CC50) at 72 h is over 1.79 mM.

As for `O=C1Oc2ccccc2N/C1=C\C(=O)c1c[nH]c2ccccc12`, the CC50 at 72 h is over 1.64 mM.

Turning to `COC(=O)/C=C1\Nc2cc(Cl)ccc2OC1=O`, the half-maximal cytotoxic concentration (CC50) at 72 h turned out to be 1.63 mM.

Regarding `COC(=O)CC1Nc2ccccc2OC1=O` (stereo unspecified), the cytotoxic concentration (CC50) at 72 h amounted to 1.55 mM.

Turning to `O=C1Oc2ccccc2N/C1=C\C(=O)c1ccccc1`, the CC50 at 72 h is over 0.942 mM.

For the compound `O=C(NNC(=O)c1ccncc1)C(=O)Nc1ccc(Cl)cc1O`, the 50% cytotoxic concentration (CC50) at 72 h came to 1.17 mM.

In the case of `Cc1ccccc1C(=O)/C=C1\Nc2ccccc2OC1=O`, the CC50 at 72 h is over 1.79 mM.

As to `O=C1Oc2ccccc2N/C1=C\C(=O)N1CCOCC1`, the CC50 at 72 h came out at 1.14 mM.

Consider `O=C(NNC(=O)c1ccncc1)C(=O)Nc1cc(Cl)ccc1O`, for which the CC50 at 72 h worked out at 1.2 mM.

On to `O=C(NNC(=O)c1ccncc1)C(=O)Nc1ccccc1O`, for which the CC50 at 72 h came out at 1.41 mM.

Regarding `O=C1Oc2ccccc2N/C1=C\C(=O)c1cccs1`, the CC50 at 72 h is over 1.84 mM.

With `O=C1Oc2ccccc2N/C1=C\C(=O)c1ccc(-c2ccccc2)cc1`, the 50% cytotoxic concentration (CC50) at 72 h was over 0.366 mM.

Take `NNC(=O)c1ccncc1` [ISONIAZID]: the CC50 at 72 h is over 7.3 mM.
